Results: patent US12583854B2, “KRAS G12C inhibitors and methods of using the same” (Amgen Inc., priority 2018, dated 2026)
Structures can show the parent of a compound that is named as a salt. Where two headings read alike, the source gives them in different places.

Experiments:
[1] = target: GDP-bound KRAS protein (aa 1-169), containing both G12C and C118A amino acid substitutions (Homo sapiens, UniProt P01116, C118A/G12C); test: Coupled Nucleotide Exchange Assay; format: biochemical; conditions: 5 min compound pre-incubation; SOS-mediated nucleotide exchange, AlphaScreen
Chain of GDP-bound KRAS protein (aa 1-169), containing both G12C and C118A amino acid substitutions (P01116 1-169 isoform P01116-2 G12C/C118A): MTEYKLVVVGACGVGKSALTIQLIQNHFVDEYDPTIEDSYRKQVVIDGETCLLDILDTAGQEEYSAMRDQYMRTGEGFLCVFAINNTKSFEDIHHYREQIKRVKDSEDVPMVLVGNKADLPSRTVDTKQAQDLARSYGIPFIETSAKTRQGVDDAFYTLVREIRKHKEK
Experimental: Following compound pre-incubation, purified SOS protein (aa 564-1049) and GTP (Roche 10106399001) were added to the assay wells and incubated for an additional 30 min. To determine the extent of inhibition of SOS-mediated nucleotide exchange, purified GST-tagged cRAF (aa 1-149), nickel chelate AlphaLISA acceptor beads (PerkinElmer AL108R), and AlphaScreen glutathione donor beads (PerkinElmer 6765302) were added to the assay wells and incubated for 10 minutes. The assay plates were then read on a PerkinElmer EnVision Multilabel Reader, using AlphaScreen® technology, and data were analyzed using a 4-parameter logistic model to calculate IC50 values.

[2] = tested on: Phosphorylation of ERK1/2 in MIA PaCa-2 cells; test: Phospho-ERK1/2 MSD Assay; format: cell-based; conditions: EGF stimulation 10 ng/mL, 10 min, read-out: p-ERK IC50 (2 h)
Experimental: Phospho-ERK1/2 MSD Assay: MIA PaCa-2 (ATCC® CRL-1420™) and A549 (ATCC® CCL-185™) cells were cultured in RPMI 1640 Medium (ThermoFisher Scientific 11875093) containing 10% fetal bovine serum (ThermoFisher Scientific 16000044) and 1× penicillin-streptomycin-glutamine (ThermoFisher Scientific 10378016). Sixteen hours prior to compound treatment, MIA PaCa-2 were seeded in 96-well cell culture plates at a density of 25,000 cells/well and incubated at 37° C., 5% CO2. A compound dose-response titration was diluted in growth media, added to appropriate wells of a cell culture plate, and then incubated at 37° C., 5% CO2 for 2 (see Table 10). Following compound treatment, cells were stimulated with 10 ng/mL EGF (Roche 11376454001) for 10 min, washed with ice-cold Dulbecco's phosphate-buffered saline, no Ca^2+ or Mg^2+ (ThermoFisher Scientific 14190144), and then lysed in RIPA buffer (50 mM Tris-HCl pH 7.5, 1% Igepal, 0.5% sodium deoxycholate, 150 mM NaCl, and 0.5% sodium dodecyl sulfate) containing protease inhibitors (Roche 4693132001) and phosphatase inhibitors (Roche 4906837001). Phosphorylation of ERK1/2 in compound-treated lysates was assayed using Phospho-ERK1/2 Whole Cell Lysate kits (Meso Scale Discovery K151DWD) according to the manufacturer's protocol. Assay plates were read on a Meso Scale Discovery Sector Imager 6000, and data were analyzed using a 4-parameter logistic model to calculate IC50 values.

[3] = Homo sapiens, MIA PaCa-2, 2 h compound treatment

| SMILES | Coupled exchange IC50 (5 min; μM) [1] [µM] | IC50 [2, 3] [nM] | IC50 ([2]; 2 h compound treatment) [nM] |
| --- | --- | --- | --- |
| C=CC(=O)N1CCN(c2c(C#N)c(=O)n(-c3c(C(C)C)ccnc3C(C)C)c3nc(-c4ccccc4F)c(Cl)cc23)CC1 (racemic) [Example 8, 4-(4-Acryloylpiperazin-1-yl)-6-chloro-1-(2,4-diisopropylpyridin-3-yl)-7-(2-fluorophenyl)-2-oxo-1,2-dihydro-1,8-naphthyridine-3-carbonitrile] | 0.06 | 120 |  |
| C=CC(=O)N1CCN(c2c(C#N)c(=O)n(-c3c(C)ccnc3C(C)C)c3nc(-c4ccccc4F)c(Cl)cc23)C[C@H]1C (single isomer, unassigned) [Example 6.7] | 0.20 | 150 |  |
| C=CC(=O)N1CCN(c2c(C#N)c(=O)n(-c3c(C(C)C)ccnc3C(C)C)c3nc(-c4ccccc4C)c(Cl)cc23)CC1 (single isomer, unassigned) [Example 7, 4-(4-Acryloylpiperazin-1-yl)-6-chloro-1-(2,4-diisopropylpyridin-3-yl)-2-oxo-7-(o-tolyl)-1,2-dihydro-1,8-naphthyridine-3-carbonitrile] | 0.15 | 220 |  |
| C=CC(=O)N1CCN(c2c(C#N)c(=O)n(-c3c(C(C)C)ccnc3C(C)C)c3nc(-c4ccccc4C)c(Cl)cc23)CC1 (single isomer, unassigned) [Example 7.1, 4-(4-acryloylpiperazin-1-yl)-6-chloro-1-(2,4-diisopropylpyridin-3-yl)-2-oxo-7-(o-tolyl)-1,2-dihydro-1,8-naphthyridine-3-carbonitrile] |  |  | 140 |
| C=CC(=O)N1[C@H](C)CN(c2c(C#N)c(=O)n(-c3c(C)ccnc3C(C)C)c3nc(-c4ccccc4F)c(Cl)cc23)C[C@@H]1C (single isomer, unassigned) [Example 7.7] | 0.18 | 260 |  |
| C=CC(=O)N1CCN(c2c(C#N)c(=O)n(-c3c(C(C)C)ccnc3C(C)C)c3nc(-c4ccccc4F)c(Cl)cc23)CC1 (single isomer, unassigned) [Example 8.1, 4-(4-acryloylpiperazin-1-yl)-6-chloro-1-(2,4-diisopropylpyridin-3-yl)-7-(2-fluorophenyl)-2-oxo-1,2-dihydro-1,8-naphthyridine-3-carbonitrile] | 0.07 | 320 |  |
| C=CC(=O)N1CCN(c2c(C#N)c(=O)n(-c3c(C(C)C)ccnc3C(C)C)c3nc(-c4ccccc4F)c(Cl)cc23)CC1 (single isomer, unassigned) [Example 8.2, 4-(4-acryloylpiperazin-1-yl)-6-chloro-1-(2,4-diisopropylpyridin-3-yl)-7-(2-fluorophenyl)-2-oxo-1,2-dihydro-1,8-naphthyridine-3-carbonitrile] | 0.12 |  | 160 |
| C=CC(=O)N1CCN(c2c(C#N)c(=O)n(-c3c(C(C)C)ccnc3N(C)C)c3nc(-c4ccccc4F)c(Cl)cc23)CC1 (single isomer, unassigned) [Example 8.4, 4-(4-acryloylpiperazin-1-yl)-6-chloro-1-(2-(dimethylamino)-4-isopropylpyridin-3-yl)-7-(2-fluorophenyl)-2-oxo-1,2-dihydro-1,8-naphthyridine-3-carbonitrile] | 0.24 |  | 240 |
| C=CC(=O)N1CCN(c2c(C#N)c(=O)n(-c3c(N(C)C)ccnc3C(C)C)c3nc(-c4ccccc4F)c(Cl)cc23)CC1 (single isomer, unassigned) [Example 8.6, 4-(4-acryloylpiperazin-1-yl)-6-chloro-1-(4-(dimethylamino)-2-isopropylpyridin-3-yl)-7-(2-fluorophenyl)-2-oxo-1,2-dihydro-1,8-naphthyridine-3-carbonitrile] | 0.25 | 160 |  |
| C=CC(=O)N1CCN(c2c(C#N)c(=O)n(-c3c(C(C)C)ccnc3N(C)C)c3nc(-c4ccccc4F)c(Cl)cc23)CC1 (single isomer, unassigned) [Example 8.8, 4-(4-acryloylpiperazin-1-yl)-6-chloro-1-(2-(dimethylamino)-4-isopropylpyridin-3-yl)-7-(2-fluorophenyl)-2-oxo-1,2-dihydro-1,8-naphthyridine-3-carbonitrile] | 0.09 |  | 50 |
| C=CC(=O)N1CCN(c2c(C#N)c(=O)n(-c3c(C)ccnc3C(C)C)c3nc(-c4ccccc4C)c(Cl)cc23)CC1 (single isomer, unassigned) [Example 11.1, 4-(4-acryloylpiperazin-1-yl)-6-chloro-1-(2-isopropyl-4-methylpyridin-3-yl)-2-oxo-7-(o-tolyl)-1,2-dihydro-1,8-naphthyridine-3-carbonitrile] | 0.15 | 120 |  |
| C=CC(=O)N1CCN(c2c(C#N)c(=O)n(-c3c(C)ccnc3C(C)C)c3nc(-c4ccccc4C(C)C)c(Cl)cc23)CC1 (single isomer, unassigned) [Example 11.3, 4-(4-acryloylpiperazin-1-yl)-6-chloro-1-(2-isopropyl-4-methylpyridin-3-yl)-7-(2-isopropylphenyl)-2-oxo-1,2-dihydro-1,8-naphthyridine-3-carbonitrile] | 0.05 | 90 |  |
| CC(C)c1ncnc(C(C)C)c1-n1c(=O)c(C#N)c(N2CCN(C(=O)/C=C/CN(C)C)CC2)c2cc(Cl)c(-c3ccccc3F)nc21 [Example 3, (E)-6-Chloro-1-(4,6-diisopropylpyrimidin-5-yl)-4-(4-(4-(dimethylamino)but-2-enoyl)piperazin-1-yl)-7-(2-fluorophenyl)-2-oxo-1,2-dihydro-1,8-naphthyridine-3-carbonitrile] | 0.4 | 720 |  |
| CC(C)c1ncnc(C(C)C)c1-n1c(=O)c(C#N)c(N2CCN(C(=O)/C=C/CN3CCCCC3)CC2)c2cc(Cl)c(-c3ccccc3F)nc21 [Example 3.1] | 1.02 | 4470 |  |
| CC(C)c1ncnc(C(C)C)c1-n1c(=O)c(C#N)c(N2CCN(C(=O)/C=C/C3CCCN3C)CC2)c2cc(Cl)c(-c3ccccc3F)nc21 (stereo not drawn) [Example 3.2] | 0.71 | 1260 |  |
| CNC/C=C/C(=O)N1CCN(c2c(C#N)c(=O)n(-c3c(C(C)C)ncnc3C(C)C)c3nc(-c4ccccc4F)c(Cl)cc23)CC1 [Example 4, (E)-6-Chloro-1-(4,6-diisopropylpyrimidin-5-yl)-7-(2-fluorophenyl)-4-(4-(4-(methylamino)but-2-enoyl)piperazin-1-yl)-2-oxo-1,2-dihydro-1,8-naphthyridine-3-carbonitrile trifluoroacetate salt] | 0.34 | 300 |  |
| CC(C)c1ncnc(C(C)C)c1-n1c(=O)c(C#N)c(N2CCN(C(=O)/C=C/CN)CC2)c2cc(Cl)c(-c3ccccc3F)nc21 [Example 4.1, (E)-4-(4-(4-aminobut-2-enoyl)piperazin-1-yl)-6-chloro-1-(4,6-diisopropylpyrimidin-5-yl)-7-(2-fluorophenyl)-2-oxo-1,2-dihydro-1,8-naphthyridine-3-carbonitrile] | 0.18 | 160 |  |
| CC(C)c1ncnc(C(C)C)c1-n1c(=O)c(C#N)c(N2CCN(C(=O)/C=C/CNC3CC3)CC2)c2cc(Cl)c(-c3ccccc3F)nc21 [Example 5, (E)-6-Chloro-4-(4-(4-(cyclopropylamino)but-2-enoyl)piperazin-1-yl)-1-(4,6-diisopropylpyrimidin-5-yl)-7-(2-fluorophenyl)-2-oxo-1,2-dihydro-1,8-naphthyridine-3-carbonitrile] | 0.70 | 760 |  |
| CC(C)NC/C=C/C(=O)N1CCN(c2c(C#N)c(=O)n(-c3c(C(C)C)ncnc3C(C)C)c3nc(-c4ccccc4F)c(Cl)cc23)CC1 [Example 5.1, (E)-6-chloro-1-(4,6-diisopropylpyrimidin-5-yl)-7-(2-fluorophenyl)-4-(4-(4-(isopropylamino)but-2-enoyl)piperazin-1-yl)-2-oxo-1,2-dihydro-1,8-naphthyridine-3-carbonitrile] | 0.44 | 560 |  |
| CC(C)c1ncnc(C(C)C)c1-n1c(=O)c(C#N)c(N2CCN(C(=O)/C=C/CNC(C)(C)C)CC2)c2cc(Cl)c(-c3ccccc3F)nc21 [Example 5.2, (E)-4-(4-(4-(tert-butylamino)but-2-enoyl)piperazin-1-yl)-6-chloro-1-(4,6-diisopropylpyrimidin-5-yl)-7-(2-fluorophenyl)-2-oxo-1,2-dihydro-1,8-naphthyridine-3-carbonitrile] | 0.44 | 390 |  |
